The source of these data is patent publication US12139520B2 (priority 2020, dated 2024).

Structures are written as SMILES. Numbered stars: 1 amine (or outer) side, 2 acyl side, 3 side chain; on linkers, the order of the positions; unused ones are H or OH. Bridge positions count the residues as written; N and C are the ends. Square brackets hold non-standard residues; d marks the D form. Peptide text beside a SMILES is read from it. * marks the point of attachment. C20 diacid = O=C(O)CCCCCCCCCCCCCCCCCCC(=O)*; γGlu = O=C(O)[C@H](CCC(=O)[*:2])N[*:1]; Hyp = O=C(O)[C@@H]1C[C@@H](O)CN1

The experiment deals with T1, hAMY3 receptor (Homo sapiens, UniProt O60896+P30988).
T1 sequence (P30988 25-474): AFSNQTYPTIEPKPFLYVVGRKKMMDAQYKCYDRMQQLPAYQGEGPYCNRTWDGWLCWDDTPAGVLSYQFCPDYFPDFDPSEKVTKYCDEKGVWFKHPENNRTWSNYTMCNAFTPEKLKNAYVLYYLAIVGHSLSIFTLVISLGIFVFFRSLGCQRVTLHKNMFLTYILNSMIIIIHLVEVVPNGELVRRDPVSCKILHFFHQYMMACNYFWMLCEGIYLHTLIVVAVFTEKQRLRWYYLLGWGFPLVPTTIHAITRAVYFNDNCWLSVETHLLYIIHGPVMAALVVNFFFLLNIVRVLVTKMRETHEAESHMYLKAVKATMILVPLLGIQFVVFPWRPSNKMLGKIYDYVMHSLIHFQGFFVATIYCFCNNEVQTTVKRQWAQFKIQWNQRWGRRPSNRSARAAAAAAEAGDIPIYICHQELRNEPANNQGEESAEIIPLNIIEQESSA
T1 sequence (O60896 24-148 partner): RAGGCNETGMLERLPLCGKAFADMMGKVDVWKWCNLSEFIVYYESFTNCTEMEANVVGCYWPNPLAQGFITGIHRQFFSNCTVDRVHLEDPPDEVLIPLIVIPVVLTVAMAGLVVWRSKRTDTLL
The experiment is described as follows: cAMP assay for in vitro receptor activation, hAMY3-R. It counts as cell-based. Particulars: cAMP assay, hAMY3 receptor; read-out: hAMY3R EC50. In outline: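 Accumulated cAMP was detected by time-resolved FRET one hour after reagent addition. Beforehand, hAMY3-R-overexpressing monoclonal cells (2000/well, DPBS, 0.05% casein, 0.5 mM IBMX) received graded doses of compound for 30 min at room temperature; human amylin served as positive control.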
In general terms: cAMP levels reflect the balance of adenylyl cyclase and phosphodiesterase activity.
Consider `CC[C@H](C)[C@H](NC(=O)[C@H](CCC(N)=O)NC(=O)[C@H](Cc1c[nH]cn1)NC(=O)[C@H](C)NC(=O)[C@H](CC(C)C)NC(=O)[C@H](CCCNC(=N)N)NC(=O)[C@H](CCC(N)=O)NC(=O)[C@@H](NC(=O)[C@@H](NC(=O)[C@@H]1CSSC[C@H](NC(=O)[C@H](CCCCN)NC(=O)CC[C@H](NC(=O)CCCCCCCCCCCCCCCCCCC(=O)O)C(=O)O)C(=O)N[C@@H](CC(N)=O)C(=O)N[C@@H]([C@@H](C)O)C(=O)N[C@@H](C)C(=O)N[C@@H]([C@@H](C)O)C(=O)N1)[C@@H](C)O)C(C)C)C(=O)N[C@@H](Cc1ccc(O)cc1)C(=O)N[C@@H](CCC(N)=O)C(=O)N[C@@H](Cc1ccccc1)C(=O)N[C@H](C(=O)N[C@@H](CC(=O)O)C(=O)N[C@@H](CCCCN)C(=O)N[C@@H](CC(N)=O)C(=O)N[C@@H](CCCCN)C(=O)N[C@@H](CC(=O)O)C(=O)N[C@@H](CC(N)=O)C(=O)N[C@H](C(=O)N[C@@H](C)C(=O)N1CCC[C@H]1C(=O)N1CCC[C@H]1C(=O)N[C@H](C(=O)N[C@@H](CC(N)=O)C(=O)N[C@H](C(=O)NCC(=O)N[C@@H](CO)C(=O)N[C@@H](CC(N)=O)C(=O)NCC(=O)N1C[C@H](O)C[C@H]1C(N)=O)C(C)C)[C@@H](C)O)C(C)C)[C@@H](C)O` [compound 91] ({C20 diacid-γGlu}-KCNTATCTVQRLAHQIYQFTDKNKDNVAPPTNVGSNG[Hyp]-NH2; disulfide 2-7), for which the EC50 (commonly the concentration that produces a half-maximal response) is 0.016 nM. Consider `CC[C@H](C)[C@H](NC(=O)[C@H](CCC(N)=O)NC(=O)[C@H](Cc1c[nH]cn1)NC(=O)[C@H](C)NC(=O)[C@H](CC(C)C)NC(=O)[C@H](CCCNC(=N)N)NC(=O)[C@H](CCC(N)=O)NC(=O)[C@@H](NC(=O)[C@@H](NC(=O)[C@@H]1CSSC[C@H](NC(=O)[C@H](CCCCN)NC(=O)CC[C@H](NC(=O)CCCCCCCCCCCCCCCCCCC(=O)O)C(=O)O)C(=O)N[C@@H](CC(N)=O)C(=O)N[C@@H]([C@@H](C)O)C(=O)N[C@@H](C)C(=O)N[C@@H]([C@@H](C)O)C(=O)N1)[C@@H](C)O)C(C)C)C(=O)N[C@@H](C)C(=O)N[C@@H](CCC(N)=O)C(=O)N[C@@H](Cc1ccccc1)C(=O)N[C@H](C(=O)N[C@@H](CC(=O)O)C(=O)N[C@@H](CCCCN)C(=O)N[C@@H](CC(=O)O)C(=O)N[C@@H](CCCCN)C(=O)N[C@@H](CC(=O)O)C(=O)N1CCC[C@H]1C(=O)N[C@H](C(=O)N[C@@H](C)C(=O)N1CCC[C@H]1C(=O)N1CCC[C@H]1C(=O)N[C@H](C(=O)N[C@@H](CC(N)=O)C(=O)N[C@H](C(=O)NCC(=O)N[C@@H](CO)C(=O)N[C@@H](CC(N)=O)C(=O)NCC(=O)N1C[C@H](O)C[C@H]1C(N)=O)C(C)C)[C@@H](C)O)C(C)C)[C@@H](C)O` [compound 92] ({C20 diacid-γGlu}-KCNTATCTVQRLAHQIAQFTDKDKDPVAPPTNVGSNG[Hyp]-NH2; disulfide 2-7), for which the EC50 was 0.016 nM. As for `CC[C@H](C)[C@H](NC(=O)[C@H](CCC(N)=O)NC(=O)[C@H](Cc1c[nH]cn1)NC(=O)[C@H](C)NC(=O)[C@H](CC(C)C)NC(=O)[C@H](CCCNC(=N)N)NC(=O)[C@H](CCC(N)=O)NC(=O)[C@@H](NC(=O)[C@@H](NC(=O)[C@@H]1CSSC[C@H](NC(=O)[C@H](CCCCN)NC(=O)CC[C@H](NC(=O)CCCCCCCCCCCCCCCCCCC(=O)O)C(=O)O)C(=O)N[C@@H](CC(N)=O)C(=O)N[C@@H]([C@@H](C)O)C(=O)N[C@@H](C)C(=O)N[C@@H]([C@@H](C)O)C(=O)N1)[C@@H](C)O)C(C)C)C(=O)N[C@@H](Cc1ccc(O)cc1)C(=O)N[C@@H](CCC(N)=O)C(=O)N[C@@H](Cc1ccccc1)C(=O)N[C@H](C(=O)N[C@@H](CC(=O)O)C(=O)N[C@@H](CCCCN)C(=O)N[C@@H](CC(=O)O)C(=O)N[C@@H](CCCCN)C(=O)N[C@@H](CC(=O)O)C(=O)N[C@@H](CC(N)=O)C(=O)N[C@H](C(=O)N[C@@H](C)C(=O)N1CCC[C@H]1C(=O)N[C@@H](CCCNC(=N)N)C(=O)N[C@H](C(=O)N[C@@H](CCCCN)C(=O)N[C@H](C(=O)NCC(=O)N[C@@H](CO)C(=O)N[C@@H](CC(N)=O)C(=O)NCC(=O)N1C[C@H](O)C[C@H]1C(N)=O)C(C)C)[C@@H](C)O)C(C)C)[C@@H](C)O` [compound 99] ({C20 diacid-γGlu}-KCNTATCTVQRLAHQIYQFTDKDKDNVAPRTKVGSNG[Hyp]-NH2; disulfide 2-7), the concentration for a half-maximal effect (EC50) was determined as 0.017 nM. To `CC[C@H](C)[C@H](NC(=O)[C@H](CCC(N)=O)NC(=O)[C@H](Cc1c[nH]cn1)NC(=O)[C@H](C)NC(=O)[C@H](CC(C)C)NC(=O)[C@H](CCCNC(=N)N)NC(=O)[C@H](C)NC(=O)[C@@H](NC(=O)[C@@H](NC(=O)[C@@H]1CSSC[C@H](NC(=O)[C@H](CCCCN)NC(=O)CC[C@H](NC(=O)CCCCCCCCCCCCCCCCCCC(=O)O)C(=O)O)C(=O)N[C@@H](CC(N)=O)C(=O)N[C@@H]([C@@H](C)O)C(=O)N[C@@H](C)C(=O)N[C@@H]([C@@H](C)O)C(=O)N1)[C@@H](C)O)C(C)C)C(=O)N[C@@H](C)C(=O)N[C@@H](CCC(N)=O)C(=O)N[C@@H](Cc1ccccc1)C(=O)N[C@H](C(=O)N[C@@H](CC(=O)O)C(=O)N[C@@H](CCCCN)C(=O)N[C@@H](CC(=O)O)C(=O)N[C@@H](CCCCN)C(=O)N[C@@H](CC(=O)O)C(=O)N[C@@H](CC(N)=O)C(=O)N[C@H](C(=O)N[C@@H](C)C(=O)N1CCC[C@H]1C(=O)N1CCC[C@H]1C(=O)N[C@H](C(=O)N[C@@H](CC(N)=O)C(=O)N[C@H](C(=O)NCC(=O)N[C@@H](CO)C(=O)N[C@@H](CC(N)=O)C(=O)NCC(=O)N1C[C@H](O)C[C@H]1C(N)=O)C(C)C)[C@@H](C)O)C(C)C)[C@@H](C)O` [compound 107] ({C20 diacid-γGlu}-KCNTATCTVARLAHQIAQFTDKDKDNVAPPTNVGSNG[Hyp]-NH2; disulfide 2-7) belongs 0.019 nM; to `CC[C@H](C)[C@H](NC(=O)[C@H](CCCCN)NC(=O)[C@@H](NC(=O)[C@H](CCCNC(=N)N)NC(=O)[C@@H]1CCCN1C(=O)[C@H](C)NC(=O)[C@@H](NC(=O)[C@H](CC(N)=O)NC(=O)[C@H](CC(=O)O)NC(=O)[C@H](CCCCN)NC(=O)[C@H](CC(=O)O)NC(=O)[C@H](CCCCN)NC(=O)[C@H](CC(=O)O)NC(=O)[C@@H](NC(=O)[C@H](Cc1ccccc1)NC(=O)[C@H](CCC(N)=O)NC(=O)[C@H](Cc1ccc(O)cc1)NC(=O)[C@@H](NC(=O)[C@H](CCC(N)=O)NC(=O)[C@H](Cc1c[nH]cn1)NC(=O)[C@H](C)NC(=O)[C@H](CC(C)C)NC(=O)[C@H](CCCNC(=N)N)NC(=O)[C@H](CCC(N)=O)NC(=O)[C@@H](NC(=O)[C@@H](NC(=O)[C@@H]1CSSC[C@H](NC(=O)CN)C(=O)N[C@@H](CCCNC(=N)N)C(=O)N[C@@H](Cc2ccccc2)C(=O)NCC(=O)N[C@@H]([C@@H](C)O)C(=O)N1)[C@@H](C)O)C(C)C)[C@@H](C)CC)[C@@H](C)O)C(C)C)[C@@H](C)O)C(=O)NCC(=O)N1CCC[C@H]1C(=O)N[C@@H](CCC(N)=O)C(=O)NCC(=O)N1C[C@H](O)C[C@H]1C(N)=O` [compound 111] (H-GCRFGTCTVQRLAHQIYQFTDKDKDNVAPRTKIGPQG[Hyp]-NH2; disulfide 2-7; N-terminus assumed), 0.021 nM.

On to `CC(C)C[C@H](NC(=O)[C@H](CCCNC(=N)N)NC(=O)[C@H](CCC(N)=O)NC(=O)[C@@H](NC(=O)[C@@H](NC(=O)[C@@H]1CSSC[C@H](NC(=O)CN)C(=O)N[C@@H](CCCNC(=N)N)C(=O)N[C@@H](Cc2ccccc2)C(=O)NCC(=O)N[C@@H]([C@@H](C)O)C(=O)N1)[C@@H](C)O)C(C)C)C(=O)N[C@@H](C)C(=O)N[C@@H](Cc1c[nH]cn1)C(=O)N[C@@H](Cc1ccccc1)C(=O)N[C@@H](CC(C)C)C(=O)N[C@@H](Cc1ccc(O)cc1)C(=O)N[C@@H](CCC(N)=O)C(=O)N[C@@H](Cc1ccccc1)C(=O)N[C@H](C(=O)N[C@@H](CC(=O)O)C(=O)N[C@@H](CCCCN)C(=O)N[C@@H](CC(=O)O)C(=O)N[C@@H](CCCCN)C(=O)N[C@@H](CC(=O)O)C(=O)N[C@@H](CC(N)=O)C(=O)N[C@H](C(=O)N[C@@H](C)C(=O)N1CCC[C@H]1C(=O)N[C@@H](CCCNC(=N)N)C(=O)N[C@H](C(=O)N[C@@H](CCCCN)C(=O)N[C@H](C(=O)NCC(=O)N[C@@H](CO)C(=O)N[C@@H](CC(N)=O)C(=O)NCC(=O)N[C@@H](Cc1ccc(O)cc1)C(N)=O)C(C)C)[C@@H](C)O)C(C)C)[C@@H](C)O` [compound 117] (H-GCRFGTCTVQRLAHFLYQFTDKDKDNVAPRTKVGSNGY-NH2; disulfide 2-7; N-terminus assumed), for which the EC50 was determined as 0.024 nM.
